Laboratory results as given in patent US20200246432A1, “NITRIC OXIDE- AND FAS LIGAND- ELUTING COMPOSITIONS AND DEVICES AND METHODS OF TREATMENT USING SAME” (YALE UNIVERSITY, priority 2017, published 2020).

What was measured:
Format in all cases: cell-based
[1] = tested on: human umbilical vein endothelial cell (HUVEC); assay: EC viability: HUVEC cell number, apoptosis, proliferation
Description: Next, the effect of FasL and NO donor combinations on EC viability was tested.

[2] = tested on: human aortic SMCs; assay: SMC apoptosis/killing, TUNEL staining, human aortic SMCs; conditions: DetaNONOate alone, up to 0.2 mM
Description: (§1) FIG. 3 is a set of graphs illustrating the finding that 48 hours of treatment with varying concentrations of human FasL and DetaNONOate (NO donor) increased apoptosis in human (left panel) and pig (right panel) aortic SMCs in a synergistic way.
(§2) Addition of FasL and NO donor DetaNONOate increased human and pig aortic SMC apoptosis in a synergistic fashion (FIG. 3). DetaNONOate alone, up to 0.2 mM concentration, led to minimal (<15%) death of human or porcine SMCs.

[3] = tested on: pig aortic SMCs; assay: SMC apoptosis/killing, TUNEL staining, pig aortic SMCs; conditions: DetaNONOate alone, up to 0.2 mM
Description: as §1, §2

[4] = tested on: human aortic SMCs; assay: Fas receptor expression on cultured human aortic SMCs after NO donor treatment (staining); conditions: 0.1 mM DetaNONOate, 24 hours
Description: FIG. 2 is a set of images illustrating the finding that 24 hours of treatment with 0.1 mM DetaNONOate (NO donor) increased Fas receptors on the surface of human aortic SMCs dramatically. Blue=DAPI nuclei, red=Fas receptor. Scale bar: 50 μm.
Both local delivery of FasL, and increasing the Fas receptors on the surface of the target cells, can increase the efficiency of FasL-mediated apoptosis. Nitric oxide (NO) is known to increase surface Fas receptors on vascular SMCs (Fukuo et al., Hypertension, 1996. 27(3 Pt 2): p. 823-6; Boyle, Weissberg, and Bennett, Arterioscler Thromb Vasc Biol, 2002. 22(10): p. 1624-30). […] After 24 hours of treatment with DetaNONOate, Fas receptor expression on SMCs was increased (red stain, FIG. 2, right panel).

## NCCN(CCN)N(O)N=O [DetaNONOate, 2,2′-(2-Hydroxy-2-nitrosohydrazinylidene)bis-ethanamine]
[1]; DetaNONOate 0.2 mM
  EC viability: negatively affected EC viability
[1]; DetaNONOate alone 0.1 mM, absence of FasL, 96 hours
  HUVEC cell number, rates of apoptosis or proliferation: did not affect
[2]
  death of human SMCs: < 15%
[3]
  death of porcine SMCs: < 15%
[4]
  Fas receptor expression on SMCs: increased
